# Source: patent publication US9072751B2, “Na/K-ATPase ligand” (priority 2006, dated 2015)
# Assays:
# [1] = test system: isolated cardiac fibroblasts; assay type: cell-based, rat; conditions: for Effect on MBG stimulation of collagen synthesis (procollagen expression): MBG 10 nM 24 h, PP2 1 μmol/L, herbimycin 1 μmol/L, AG1478 250 nM, N-acetyl cysteine 2.5 mmol/L from 2 hours before
# Method: (§1) Preparation of adult rat cardiac fibroblasts was performed as described previously by Brilla et al. with modifications.
# Western blot analysis was performed on protein isolated from tissue homogenates, cell culture whole cell lysates, or nuclear extracts as described previously.
# (§2) Representative Western blot for procollagen and quantitative densitometric data obtained in response to different doses of (a) MBG (all N=10), (b) MBG 10 nM contrasted with different doses of ouabain (0.1 to 100 nM) and digoxin (10 nM; all N=8). c, ouabain sensitive Rb uptake as a function of MBG and ouabain concentration (N=4 at each concentration for both MBG and ouabain; data expressed as fraction of control). d, relative proline incorporation in the supernatant and matrix, both will and without collagenase digestion (total). Each group (controls and different doses of MBG) contains N=7 replicants. The difference between the total and after collagenase digestion is reported as collagen. The matrix is the sample that was obtained after removing supernatant and scraping the culture dish. e, mRNA for collagen 1 in MBG-treated (10 nM; N=8) or control (N=8) fibroblasts. f, procollagen stability after cycloheximide treatment. Time 0 is 1 hour after incubation with cycloheximide (20 μg/mL). […] Least-square regression line fit to control (CTL) and MBG data. Bars on quantitative graphs represent the mean.+−.SEM. *P<0.05 and **P<0.01 vs control.
# (§3) The PP2, herbimycin AG1478, and N-acetyl cysteine were administered from 2 hours before the addition of MBG and continued throughout the 24 hours of MBG incubation (total of 26 hours). Each bar represents the mean.+−.SEM of n=8 experiments. b, effects of PP2 (1 μmol/L) and N-acetyle cysteine (2.5 mmol/L) on MBG (10 nM)-stimulated proline incorporation into collagen. Again, the PP2 an N-acetyl cysteine were added 2 hours before exposure to MBG. Each bar represents the mean.+−.SEM of N=5 experiments. c, effects of MBG 10 nM on procollagen content in SYF and SYF+ cells. Representative Western blots are shown above quantitative data. SYF blots loaded with 15 μg of protein and SYF+blots loaded with 10 μg of protein. Each bar represents the mean.+−SEM of N-6 determinations In each group. **P<01.10 vs. control.
# (§4) The effect of 24 hours of MBG (1 and 10 nM) on TGF-β, Smad 2/3, Smad 4, and pSmad 2/3 expression determined by Western blot. b and c, effects of 24 hours of MBG (10 nM), TGFβ(5 ng/mL), and the TGF-β receptor antagonist SB431542 ([…] on procollagen-1 expression (Western blot) and radiolabeled proline incorporation, respectively also were carried out. SB431542 was added 2 hours before exposure to either TGFβ or MBG (total of 26-hour exposure). Each bar represents the mean.+−.SEM of 6 to 8 determinations. *P<0.05, **P<0.01 vs. control.
# [2] = test system: isolated cardiac fibroblasts; assay: Radiolabeled proline incorporation into collagen (collagen synthesis) in cardiac fibroblasts; assay type: cell-based, rat; conditions: for Effect on MBG-stimulated proline incorporation into collagen: MBG 10 nM, PP2 1 μmol/L, N-acetyl cysteine 2.5 mmol/L added 2 hours before
# Method: as §1
# Collagen synthesis rates were determined by the method of Nishida et al. with modification.
# (§5) To further examine the molecular basis of this cardiac fibrosis, isolated cardiac fibroblasts were subjected to increase doses of MBG (10^−10, 10^−9, and 10^−8 M). […] Using collagenase digestion, we observed that the vast majority of the proline incorporation was into collagen. Using standardized RT-PCR, we observed a doubling of mRNA for collagen-1 at 24 hours in response to 10 nM of MBG.
# as §2
# as §3, with “The effects of PP2 (1 μmol/L), herbimycin (1 μmol/L), AG1478 (250 nM), and N-acetyl cysteine (2.5 mmol/L) on MBG (10 nM) stimulation of procollagen expression also were found. The” for “The”
# as §4
# Milan hypertensive rats = conditions: cited from earlier work
# [3] = cited from earlier work
# fibroblast cell line = assay: Procollagen expression in immortalized fibroblast cell line (Western blot); assay type: cell-based
# From the text: We next examined whether skin fibroblasts lines had similar response. This was done with dermal fibroblasts kindly provided by Dr. Bashar Kahaleh. […] The magnitude of this response is illustrated by comparison to maximal doses of TGFβ, the “classic” stimulus for fibrosis (see below). In addition, we observed that an immortalized fibroblast line responded similarly to MBG, ouabain and digoxin.
# Response of dermal fibroblasts to MBG as compared with TGF beta. Note that increase in collagen expression in MBG is approximately 10 fold with 5 or 10 nM MBG.
# Na/K-ATPase = target: T1, Na/K-ATPase (Rattus norvegicus, UniProt P06685); assay: Ouabain sensitive 86Rb uptake in cardiac fibroblasts; assay type: cell-based
# T1 construct: In vitro studies were then pursued with cultured isolated cardiac fibroblasts; endogenous in cells; host or cells: primary isolated cardiac fibroblasts in culture
# Method: as §5
# Representative Western blot for procollagen and quantitative densitometric data obtained in response to different doses of (a) MBG (all N=10), (b) MBG 10 nM contrasted with different doses of ouabain (0.1 to 100 nM) and digoxin (10 nM; all N=8). c, ouabain sensitive Rb uptake as a function of MBG and ouabain concentration (N=4 at each concentration for both MBG and ouabain; data expressed as fraction of control). d, relative proline incorporation in the supernatant and matrix, both will and without collagenase digestion (total). Each group (controls and different doses of MBG) contains N=7 replicants. The difference between the total and after collagenase digestion is reported as collagen. […] Bars on quantitative graphs represent the mean.+−.SEM. *P<0.05 and **P<0.01 vs control.
# SYF+ cells = assay: Procollagen expression in SYF+ cells; assay type: cell-based; conditions: MBG 10 nM
# From the text: (§6) To examine whether cardiotronic steroids induced collagen synthesis by signaling through the Na/K-ATPase, we performed the following studies. First, we used pharmacological antagonism at several steps in the Na/K-ATPase cascade. Specifically, we used pharmacological antagonism of Src activation with PP2, nonspecific tyrosine kinase inhibition with herbimycin, inhibition of EGFR transactivation with AG1478, and nonspecific antioxidant administration with N-acetyle cysteine. […] Next we performed studies in the SYF and SYF+ cells (details available in the online supplement).
# as §3, with “The effects of PP2 (1 μmol/L), herbimycin (1 μmol/L), AG1478 (250 nM), and N-acetyl cysteine (2.5 mmol/L) on MBG (10 nM) stimulation of procollagen expression also were found. The” for “The”, “SYF blots loaded with 15 μg of protein and SYF+blots loaded with 10 μg of protein. Each bar represents the mean.+−SEM of N-6 determinations In each group. **P<01.10 vs. control.” left out
# SYF cells = assay: Procollagen expression in SYF cells; assay type: cell-based; conditions: MBG 10 nM
# From the text: as §6
# as §3, with “The effects of PP2 (1 μmol/L), herbimycin (1 μmol/L), AG1478 (250 nM), and N-acetyl cysteine (2.5 mmol/L) on MBG (10 nM) stimulation of procollagen expression also were found. The” for “The”, “SYF blots loaded with 15 μg of protein and SYF+blots loaded with 10 μg of protein. Each bar represents the mean.+−SEM of N-6 determinations In each group. **P<01.10 vs. control.” left out
# fibroblasts = conditions: 48 hours, 15 ng/mL; cited from earlier work
compound,measurement,setting,value
COc1cc2ncnc(Nc3cccc(Cl)c3)c2cc1OC [AG1478],Effect on MBG stimulation of collagen synthesis (procollagen expression),[1],prevented MBG stimulation of collagen synthesis
CC(=O)N[C@@H](CS)C(=O)O [N-acetyl cysteine],Effect on MBG-stimulated proline incorporation into collagen,[2],prevented increases in proline incorporation into collagen
same,Effect on MBG stimulation of collagen synthesis (procollagen expression),[1],prevented MBG stimulation of collagen synthesis
CC(C)(C)n1nc(-c2ccc(Cl)cc2)c2c(N)ncnc21 [PP2],Effect on MBG-stimulated proline incorporation into collagen,[2],prevented increases in proline incorporation into collagen
same,Effect on MBG stimulation of collagen synthesis (procollagen expression),[1],prevented MBG stimulation of collagen synthesis
C[C@]12CC[C@H](O)C[C@H]1CC[C@@H]1[C@@H]2CC[C@]2(C)[C@@](O)(c3ccoc3)CC[C@]12O [PST 2238],Effect on hypertension and cardiac hypertrophy,Milan hypertensive rats,"ameliorates hypertension, as well as cardiac hypertrophy"
NC(=O)c1ccc(-c2nc(-c3ccc4c(c3)OCO4)c(-c3ccccn3)[nH]2)cc1 [SB431542],Radiolabeled proline incorporation relative to control cells,[2]; 100-μmol/L,did decrease radiolabeled proline incorporation below that seen with control cells
same,Effect on TGF-β and MBG (10 nM) stimulation of radiolabeled proline incorporation,[2]; SB431542 added 2 hours before,completely blocked
same,Procollagen expression relative to baseline (Western blot),[1]; 100-μmol/L,did not educe procollagen expression below baseline
same,Effect on TGF-β and MBG (10 nM) stimulation of collagen expression,[1]; SB431542 added 2 hours before,completely blocked
C[C@H]1O[C@@H](O[C@H]2[C@@H](O)C[C@H](O[C@H]3[C@@H](O)C[C@H](O[C@H]4CC[C@@]5(C)[C@H](CC[C@@H]6[C@@H]5C[C@@H](O)[C@]5(C)[C@@H](C7=CC(=O)OC7)CC[C@]65O)C4)O[C@@H]3C)O[C@@H]2C)C[C@H](O)[C@@H]1O [digoxin],Free fraction of plasma digoxin,"[3]; human, in vivo",70% to 80%
same,Total digoxin levels typically maintained in patients,[3]; patients treated with digoxin,< 2 ng/mL
same,Effect on fibroblast cell line expression of procollagen,fibroblast cell line,Comparable effect
CO[C@H]1[C@@H](OC)C[C@H](C)[C@@H](OC)C2=CC(=O)C=C(NC(=O)/C(C)=C/C=C\[C@H](OC)[C@@H](OC(N)=O)/C(C)=C/[C@@H]1C)C2=O [herbimycin],Effect on MBG stimulation of collagen synthesis (procollagen expression),[1],prevented MBG stimulation of collagen synthesis
"C[C@@H]1O[C@@H](O[C@H]2C[C@@H](O)[C@]3(CO)[C@H]4[C@H](O)C[C@]5(C)[C@@H](C6=CC(=O)OC6)CC[C@]5(O)[C@@H]4CC[C@]3(O)C2)[C@H](O)[C@H](O)[C@H]1O [ouabain, reference compound]",Threshold for inducing collagen expression relative to doses with detectable effects on 86Rb uptake,Na/K-ATPase,log units below
same,Upregulation of procollagen expression in SYF+ cells,SYF+ cells,very similar way as the primary cardiac fibroblast cultures
same,Response of procollagen expression in SYF cells,SYF cells,essentially no response
same,Effect on fibroblast cell line expression of procollagen,fibroblast cell line,Comparable effect
TGF-β,Maximal increase in collagen production,fibroblasts,2 times
same,Synergism with MBG on procollagen expression,[1]; TGF-β 5 ng/mL and MBG 10 nM,did not note any synergism
